Tests used:
Format in all cases: cell-based
[1] = test system: Wnt activity (Sp5-Luc reporter, SW480 colon carcinoma cells); experiment: Wnt activity screening assay, Sp5-Luc reporter gene in SW480 cells; conditions: Homo sapiens; for EC50: Sp5-Luc reporter, SW480 cells, overnight incubation; for inhibition at 10 µM: SW480, read-out: percent inhibition at 10 μM
Excerpt: The screening assay for Wnt activity is described as follows. Reporter cell lines can be generated by stably transducing cancer cell lines (e.g., colon cancer) or primary cells (e.g., IEC-6 intestinal cells) with a lentiviral construct that includes a Wnt-responsive promoter driving expression of the firefly luciferase gene.
SW480 colon carcinoma cells were transduced with a lentiviral vector expressing luciferase with a human Sp5 promoter consisting of a sequence of eight TCF/LEF binding sites. SW480 cells stably expressing the Sp5-Luc reporter gene and a hygromycin resistance gene were selected by treatment with 150 μg/mL of hygromycin for 7 days. These stably transduced SW480 cells were expanded in cell culture and used for all further screening activities. […] For Sp5-Luc reporter gene assays, the cells were plated at 4,000 cells/well in 384-well plates with medium containing 1% fetal bovine serum and incubated overnight at 37° C. and 5% CO2. Following incubation, 20 μl of BrightGlo luminescence reagent (Promega) was added to each well of the 384-well assay plates. The plates were placed on an orbital shaker for 2 min and then luminescence was quantified using the Envision (Perkin Elmer) plate reader. Readings were normalized to DMSO only treated cells, and normalized activities were utilized for EC50 calculations using the dose-response log (inhibitor) vs. response−variable slope (four parameters) nonlinear regression feature available in GraphPad Prism 5.0 (or Dotmatics).

IL-6 = IL-6 inhibition in LPS-stimulated THP-1 cells (HTRF); conditions: Homo sapiens; for EC50: THP-1 cells, LPS 500 ng/mL, 22 hours, IL6 HTRF; for inhibition at 10 µM: THP-1, read-out: percent inhibition at 10 μM
Procedure: THP-1 cells were cultured in basal media with 1% FBS for 24 hours before the start of the assay. […] THP-1 cells were plated at 5000 cells/well in the 384-well plates and incubated at 37° C. for 2 h. 500 ng/mL of LPS was added after 2 hours and cells were incubated for another 22 hours at 37° C. Plates were spun in a centrifuge for 1 minute at […] and a mixture of anti-IL6 XL665, and anti-IL6 Cryptate diluted in reconstitution buffer (Cisbio Inc.) was added to each well. Following incubation for 3 hrs at room temperature, Homogeneous Time-Resolved Fluorescence (HTRF) was measured using the Envision (Perkin Elmer) at 665 nm and […]. The ratio of fluorescence at 665 nm to 620 nm was used as a readout for IL6 quantification. All samples were processed in duplicate. Readings were normalized to DMSO treated cells and normalized activities were utilized for EC50 calculations using the dose-response log (inhibitor) vs. response−variable slope (four parameters) nonlinear regression feature available in GraphPad Prism 5.0 (or Dotmatics).

[2] = test system: primary human fibroblasts derived from IPF patients (LL29 cells); experiment: Inhibition of fibrotic process, αSMA staining in TGF-β1 treated fibroblasts; conditions: Fibroblast; for EC50: 96 h, LL29 cells, TGF-β1 20 ng/mL, 4 days, % αSMA positive cells; for inhibition at 10 µM: read-out: percent inhibition at 10 μM
Procedure: Representative compounds were screened using primary human fibroblasts (derived from IPF patients) treated with TGF-β1 to determine their ability to inhibit the fibrotic process.
LL29 cells are plated at 1,500 cells/well in 80 μL/well F12 medium supplemented with 1% Fetal Bovine Serum. […] Wells treated with TGF-31 and containing DMSO were used as controls. […] Following incubation for 4 days, SYTOX green nucleic acid stain (Life Technologies [Thermo Fisher Scientific]) was added to the wells at a final concentration of 1 μM and incubated at room temperature for 30 min.

SW480 colon cancer cells = experiment: Cell viability assay (CellTiter-Blue); conditions: Homo sapiens; for EC50: 96 h, SW480 cell viability, four days; for inhibition at 10 µM: SW480, 96 h, read-out: percent inhibition at 10 μM
Procedure: Representative compounds were screened using the following assay procedure to assess the effect on cell viability as described below.
Approximately 2×10^3 SW480 colon cancer cells were seeded into each well and allowed to incubate in the presence or absence of compound for four days at 37° C./5% CO2. Eight replicates of DMSO-treated cells served as controls and cells treated with compound were performed in duplicate.
After incubation, 20 μL of CellTiter-Blue (Promega) was added to each well allowed to incubate for approximately 3 hours. This reagent was a buffered solution which contains resazurin, metabolically active cells were able to reduce rezarurin (blue) into resorufin (pink) which was highly fluorescent. This measured fluorescence was used as a readout for cell viability.

SMILES | EC50 [1] | EC50 (IL-6) | EC50 [2] | EC50 (SW480 colon cancer cells) | inhibition at 10 µM (SW480 colon cancer cells) | inhibition at 10 µM [1] | inhibition at 10 µM (IL-6) | inhibition at 10 µM [2]
Cn1cc(-c2cnc3[nH]nc(-c4cc5c(-c6cc(F)cc(CNS(C)(=O)=O)c6)cncc5[nH]4)c3c2)cn1 [Compound 764, N-(3-Fluoro-5-(2-(5-(1-methyl-1H-pyrazol-4-yl)-1H-pyrazolo[3,4-b]pyridin-3-yl)-1H-pyrrolo[2,3-c]pyridin-4-yl)benzyl)methanesulfonamide] | 1.16 µM | 0.199 µM | 1.04 µM | > 10 µM | 0% |  |  | 
O=C(Nc1cncc(-c2cnc3[nH]nc(-c4cc5c(-c6ccncc6)cncc5[nH]4)c3c2)c1)C1CCCC1 [Compound 134, N-(5-(3-(4-(Pyridin-4-yl)-1H-pyrrolo[2,3-c]pyridin-2-yl)-1H-pyrazolo[3,4-b]pyridin-5-yl)pyridin-3-yl)cyclopentanecarboxamide] | > 10 µM | > 10 µM | > 10 µM | > 10 µM | 10.6% | 0% | 30% | 27.9%
c1ncc(-c2cnc3[nH]nc(-c4cc5c(-c6ccoc6)cncc5[nH]4)c3c2)cn1 [Compound 335, 3-(4-(Furan-3-yl)-1H-pyrrolo[2,3-c]pyridin-2-yl)-5-(pyrimidin-5-yl)-1H-pyrazolo[3,4-b]pyridine] | > 10 µM | 2.52 µM | 4.77 µM | > 10 µM | 47% | 24.9% |  | 
c1ccc(-c2cnc3[nH]nc(-c4cc5c(-c6cccnc6)cncc5[nH]4)c3c2)nc1 [Compound 112, 5-(Pyridin-2-yl)-3-(4-(pyridin-3-yl)-1H-pyrrolo[2,3-c]pyridin-2-yl)-1H-pyrazolo[3,4-b]pyridine] | > 10 µM | > 10 µM | 2.19 µM | 3.68 µM |  | 44.2% | 16.9% | 
CN(C)Cc1cncc(-c2cnc3[nH]nc(-c4cc5c(-c6ccoc6)cncc5[nH]4)c3c2)c1 [Compound 321, 1-(5-(3-(4-(Furan-3-yl)-1H-pyrrolo[2,3-c]pyridin-2-yl)-1H-pyrazolo[3,4-b]pyridin-5-yl)pyridin-3-yl)-N,N-dimethylmethanamine] | > 10 µM | > 10 µM | > 10 µM | 6.29 µM |  | 15.4% | 29.2% | 41.1%
CCNCc1cncc(-c2cnc3[nH]nc(-c4cc5c(N6CCCCC6)cncc5[nH]4)c3c2)c1 [Compound 174, N-((5-(3-(4-(Piperidin-1-yl)-1H-pyrrolo[2,3-c]pyridin-2-yl)-1H-pyrazolo [3,4-b]pyridin-5-yl)pyridin-3-yl)methyl)ethanamine] | 9.46 µM | 3.4 µM | 3.61 µM | 4.14 µM |  |  |  | 
CC(C)(C)CC(=O)Nc1cncc(-c2cnc3[nH]nc(-c4cc5c(-c6ccoc6)cncc5[nH]4)c3c2)c1 [Compound 324, N-(5-(3-(4-(Furan-3-yl)-1H-pyrrolo[2,3-c]pyridin-2-yl)-1H-pyrazolo[3,4-b]pyridin-5-yl)pyridin-3-yl)-3,3-dimethylbutanamide] | 3.73 µM | 0.437 µM | 0.874 µM | 7 µM |  |  |  | 
CC(C)(C)C(=O)Nc1cncc(-c2cnc3[nH]nc(-c4cc5c(-c6ccc(F)cc6)cncc5[nH]4)c3c2)c1 [Compound 36, N-(5-(3-(4-(4-Fluorophenyl)-1H-pyrrolo[2,3-c]pyridin-2-yl)-1H-pyrazolo [3,4-b]pyridin-5-yl)pyridin-3-yl)pivalamide] | > 10 µM | 0.127 µM | 2.55 µM | 2.08 µM |  | 18.8% |  | 
CC(C)Nc1cncc(-c2cnc3[nH]nc(-c4cc5c(-c6ccncc6)cncc5[nH]4)c3c2)c1 [Compound 124, N-Isopropyl-5-(3-(4-(pyridin-4-yl)-1H-pyrrolo[2,3-c]pyridin-2-yl)-1H-pyrazolo[3,4-b]pyridin-5-yl)pyridin-3-amine] | > 10 µM | 0.068 µM | 2.4 µM | > 10 µM | 3.2% | 15.5% |  | 
CCNCc1cncc(-c2cnc3[nH]nc(-c4cc5ccncc5[nH]4)c3c2)c1 [Compound 258, N-((5-(3-(1H-Pyrrolo[2,3-c]pyridin-2-yl)-1H-pyrazolo[3,4-b]pyridin-5-yl)pyridin-3-yl)methyl)ethanamine] | 9.34 µM | 1.55 µM | 7.43 µM | 3.32 µM |  |  |  | 
Fc1cccc(-c2cncc3[nH]c(-c4n[nH]c5ncc(-c6ccncc6)cc45)cc23)c1 [Compound 18, 3-(4-(3-Fluorophenyl)-1H-pyrrolo[2,3-c]pyridin-2-yl)-5-(pyridin-4-yl)-1H-pyrazolo[3,4-b]pyridine] | 4.15 µM | > 10 µM | 1.23 µM | 1.91 µM |  |  | 20.3% | 
CC(C)(C)CC(=O)Nc1cncc(-c2cnc3[nH]nc(-c4cc5c(-c6ccccc6F)cncc5[nH]4)c3c2)c1 [Compound 72, N-(5-(3-(4-(2-Fluorophenyl)-1H-pyrrolo[2,3-c]pyridin-2-yl)-1H-pyrazolo [3,4-b]pyridin-5-yl)pyridin-3-yl)-3,3-dimethylbutanamide] | 1.01 µM | 3.12 µM | 0.384 µM | 0.747 µM |  |  |  | 
CS(=O)(=O)NCc1cc(F)cc(-c2cncc3[nH]c(-c4n[nH]c5ncc(-c6cncc(CN7CCCC7)c6)cc45)cc23)c1 [Compound 490, N-(3-Fluoro-5-(2-(5-(5-(pyrrolidin-1-ylmethyl)pyridin-3-yl)-1H-pyrazolo [3,4-b]pyridin-3-yl)-1H-pyrrolo[2,3-c]pyridin-4-yl)benzyl)methanesulfonamide] | > 10 µM | 0.325 µM | > 10 µM | > 10 µM | 9.7% | 24% |  | 16.2%
CC(C)CC(=O)Nc1cncc(-c2cnc3[nH]nc(-c4cc5c(-c6ccc(F)cc6)cncc5[nH]4)c3c2)c1 [Compound 30, N-(5-(3-(4-(4-Fluorophenyl)-1H-pyrrolo[2,3-c]pyridin-2-yl)-1H-pyrazolo [3,4-b]pyridin-5-yl)pyridin-3-yl)-3-methylbutanamide] | 1.63 µM | > 10 µM | 1.14 µM | 1.62 µM |  |  | 24.6% | 
O=C(Nc1cncc(-c2cnc3[nH]nc(-c4cc5c(N6CCCCC6)cncc5[nH]4)c3c2)c1)C1CCCCC1 [Compound 191, N-(5-(3-(4-(Piperidin-1-yl)-1H-pyrrolo[2,3-c]pyridin-2-yl)-1H-pyrazolo[3,4-b]pyridin-5-yl)pyridin-3-yl)cyclohexanecarboxamide] | 9.12 µM | 6.43 µM | 5.63 µM | 4.09 µM |  |  |  | 
Fc1ccc(-c2cncc3[nH]c(-c4n[nH]c5ncc(-c6ccccn6)cc45)cc23)cc1 [Compound 56, 3-(4-(4-Fluorophenyl)-1H-pyrrolo[2,3-c]pyridin-2-yl)-5-(pyridin-2-yl)-1H-pyrazolo[3,4-b]pyridine] | > 10 µM | > 10 µM | > 10 µM | 5.74 µM |  | 15.5% | 25% | 38.2%
